{"source": "patent US11612611B2", "about": "“Composition and method for treating muscle cramps containing choline alfoscerate as active ingredient” (NANOSTEM CO., LTD., priority 2017, dated 2023)", "key": {"[1]": {"system": "patients with muscle cramps", "assay": "Frequency of muscle cramps for a week in patients with muscle cramps, one-month test", "conditions": "for Frequency of muscle cramps: per week"}, "[2]": {"system": "patients with muscle cramps", "assay": "Pain intensity (11-point PI-NRS) in patients with muscle cramps, one-month test", "type": "in vivo, human", "method": "Patients who experience muscle cramps when stabilized for 3 months without taking exercise were selected as subjects.\nThe “trigger point injection group (control group)” patients were injected with 5 mL of 0.5% lidocaine at the trigger points (4-5 points), once a week.\n(§1) The “choline alfoscerate intravenous administration group (Example 1)” patients were intravenously injected slowly with choline alfoscerate (1 g/4 mL) mixed in 100 mL of physiological saline, twice a week.\n(§2) The “choline alfoscerate oral administration group (Example 2)” patients were […] with choline alfoscerate (400 mg/capsule), 3 times a day.\nThe test period was one month. […] The pain intensity was evaluated according to the 11-point pain intensity numerical rating scale (PI-NRS), where 0=no pain, weakest pain=1 and most severe pain=10. 2-point reduction in the pain intensity was considered clinically significant as reported (Farrar 2001, Rowbotham 2001, Hawker 2011). The pain intensity was measured on the first visit and was compared with the pain intensity 2 weeks (T1) and 4 weeks (T2) after the first drug administration."}, "[3]": {"system": "patients with nocturnal calf cramps", "conditions": "1-2 mL of 0.25% lidocaine at MTrPs of gastrocnemius muscle; cited from earlier work"}, "[4]": {"system": "patients with muscle cramps", "assay": "Side effects after the treatment in patients with muscle cramps", "type": "in vivo, human", "method": "as §1, §2\nBecause choline alfoscerate has no effect on the kidney and liver, it is thought that it can be used for people with kidney or liver problems as a therapeutic agent for muscle cramps."}, "[5]": {"conditions": "reported since 1969; cited from earlier work"}, "[6]": {"conditions": "trigger point injection (0.5% lidocaine), before drug administration"}, "[7]": {"conditions": "trigger point injection, 5 mL 0.5% lidocaine once a week, T1 (first 2 weeks)"}, "[8]": {"conditions": "trigger point injection, 5 mL 0.5% lidocaine once a week, T2 (second 2 weeks)"}, "[9]": {"conditions": "trigger point injection, 5 mL 0.5% lidocaine once a week, before drug administration (baseline)"}, "[10]": {"conditions": "Example 1, intravenous 1 g twice a week, T1 (first 2 weeks)"}, "[11]": {"conditions": "Example 1, intravenous 1 g twice a week, T2 (second 2 weeks)"}, "[12]": {"conditions": "Example 1, intravenous 1 g twice a week, before drug administration (baseline)"}, "[13]": {"conditions": "Example 2, oral 400 mg capsule 3 times a day, T1 (first 2 weeks)"}, "[14]": {"conditions": "Example 2, oral 400 mg capsule 3 times a day, T2 (second 2 weeks)"}, "[15]": {"conditions": "Example 2, oral 400 mg capsule 3 times a day, before drug administration (baseline)"}, "[16]": {"conditions": "intravenous administration group (Example 1), T1"}, "[17]": {"conditions": "intravenous administration group (Example 1), T2"}, "[18]": {"conditions": "intravenous administration group (Example 1), before drug administration"}, "[19]": {"conditions": "oral administration group (Example 2), T1"}, "[20]": {"conditions": "oral administration group (Example 2), T2"}, "[21]": {"conditions": "oral administration group (Example 2), before drug administration"}}, "data": [{"smiles": "CCN(CC)CC(=O)Nc1c(C)cccc1C", "note": "[Control group (TPI), lidocaine]", "values": [{"measurement": "frequency of muscle cramps for a week", "setting": "[1]; trigger point injection (0.5% lidocaine), T1", "result": 2.00, "unit": "times"}, {"measurement": "frequency of muscle cramps for a week", "setting": "[1]; trigger point injection (0.5% lidocaine), T2", "result": 1.43, "unit": "times"}, {"measurement": "frequency of muscle cramps for a week", "setting": "[1]; [6]", "result": 2.84, "unit": "times"}, {"measurement": "Frequency of muscle cramps", "setting": "[1]; [7]", "result": "2.00 ± 0.68"}, {"measurement": "Frequency of muscle cramps", "setting": "[1]; [8]", "result": "1.43 ± 0.53"}, {"measurement": "Frequency of muscle cramps", "setting": "[1]; [9]", "result": "2.84 ± 0.99"}, {"measurement": "pain intensity", "setting": "[2]; trigger point injection (0.5% lidocaine), 2 weeks after first drug administration (T1)", "result": 3.74, "unit": "points"}, {"measurement": "pain intensity", "setting": "[2]; trigger point injection (0.5% lidocaine), 4 weeks after first drug administration (T2)", "result": 2.11, "unit": "points"}, {"measurement": "pain intensity", "setting": "[2]; [6]", "result": 5.34, "unit": "points"}, {"measurement": "pain intensity", "setting": "[2]; [7]", "result": "3.74 ± 0.91"}, {"measurement": "pain intensity", "setting": "[2]; [8]", "result": "2.11 ± 0.76"}, {"measurement": "pain intensity", "setting": "[2]; [9]", "result": "5.34 ± 0.87"}, {"measurement": "frequency of cramps for a week as compared to before the administration", "setting": "[3]", "result": "decreased significantly"}, {"measurement": "insomnia severity index (ISI) as compared to before the administration", "setting": "[3]", "result": "decreased significantly"}, {"measurement": "intensity of pain as compared to before the administration", "setting": "[3]", "result": "decreased significantly"}]}, {"smiles": "C[N+](C)(C)CCOP(=O)([O-])OC[C@H](O)CO", "note": "[choline alfoscerate]", "values": [{"measurement": "Frequency of muscle cramps", "setting": "[1]; [10]", "result": "1.56 ± 1.34"}, {"measurement": "Frequency of muscle cramps", "setting": "[1]; [11]", "result": "0.88 ± 1.19"}, {"measurement": "Frequency of muscle cramps", "setting": "[1]; [12]", "result": "4.91 ± 2.40"}, {"measurement": "Frequency of muscle cramps", "setting": "[1]; [13]", "result": "2.67 ± 1.07"}, {"measurement": "Frequency of muscle cramps", "setting": "[1]; [14]", "result": "1.05 ± 0.70"}, {"measurement": "Frequency of muscle cramps", "setting": "[1]; [15]", "result": "5.25 ± 1.47"}, {"measurement": "frequency of muscle cramps for a week as compared to control group", "setting": "[1]; intravenous (Example 1), T1, P < 0.05", "result": "significant decrease"}, {"measurement": "frequency of muscle cramps as compared to control group", "setting": "[1]; intravenous (Example 1), T2", "result": "significant decrease"}, {"measurement": "frequency of muscle cramps for a week", "setting": "[1]; [16]", "result": 1.56, "unit": "times"}, {"measurement": "frequency of muscle cramps for a week", "setting": "[1]; [17]", "result": 0.88, "unit": "time"}, {"measurement": "frequency of muscle cramps for a week", "setting": "[1]; [18]", "result": 4.91, "unit": "times"}, {"measurement": "frequency of muscle cramps for a week as compared to control group", "setting": "[1]; oral (Example 2), T1, higher baseline frequency in this group", "result": "significant increase"}, {"measurement": "frequency of muscle cramps as compared to control group", "setting": "[1]; oral (Example 2), T2", "result": "significant decrease"}, {"measurement": "frequency of muscle cramps for a week", "setting": "[1]; [19]", "result": 2.67, "unit": "times"}, {"measurement": "frequency of muscle cramps for a week", "setting": "[1]; [20]", "result": 1.05, "unit": "times"}, {"measurement": "frequency of muscle cramps for a week", "setting": "[1]; [21]", "result": 5.25, "unit": "times"}, {"measurement": "pain intensity", "setting": "[2]; [10]", "result": "2.56 ± 1.49"}, {"measurement": "pain intensity", "setting": "[2]; [11]", "result": "1.32 ± 0.91"}, {"measurement": "pain intensity", "setting": "[2]; [12]", "result": "6.50 ± 1.26"}, {"measurement": "pain intensity", "setting": "[2]; [13]", "result": "3.94 ± 1.17"}, {"measurement": "pain intensity", "setting": "[2]; [14]", "result": "1.88 ± 0.92"}, {"measurement": "pain intensity", "setting": "[2]; [15]", "result": "6.31 ± +0.94"}, {"measurement": "pain intensity as compared to trigger point injection group (control group)", "setting": "[2]; intravenous (Example 1), at both T1 and T2, P < 0.05", "result": "significant decrease"}, {"measurement": "pain intensity", "setting": "[2]; [16]", "result": 2.56, "unit": "points"}, {"measurement": "pain intensity", "setting": "[2]; [17]", "result": 1.32, "unit": "points"}, {"measurement": "pain intensity", "setting": "[2]; [18]", "result": 6.50, "unit": "points"}, {"measurement": "pain intensity", "setting": "[2]; [19]", "result": 3.94, "unit": "points"}, {"measurement": "pain intensity", "setting": "[2]; [20]", "result": 1.88, "unit": "points"}, {"measurement": "pain intensity", "setting": "[2]; [21]", "result": 6.31, "unit": "points"}, {"measurement": "side effect after the treatment", "setting": "[4]; intravenous administration group (Example 1)", "result": "no side effect"}, {"measurement": "side effect after the treatment", "setting": "[4]; oral administration group (Example 2)", "result": "no side effect"}]}, {"smiles": "C=C[C@H]1C[N@@]2CC[C@H]1C[C@H]2[C@H](O)c1ccnc2ccc(OC)cc12", "note": "[quinine]", "values": [{"measurement": "death reported", "setting": "[5]", "result": 93, "unit": "cases"}, {"measurement": "severe side effects reported", "setting": "[5]", "result": 665, "unit": "cases"}]}]}
